We go through 1 compound from ChEMBL document CHEMBL1134590, “Determination of the binding specificity of an integral membrane protein by saturation transfer difference NMR: RGD peptide ligands binding to integrin alphaIIbbeta3” (J Med Chem, 2001).

Where only a bound is given, the exact number is not on record here.

This assay has as its target Integrin alpha-IIb/beta-3 (Homo sapiens, UniProt P05106+P08514). Kind of assay: Inhibition of integrin alphaIIb-beta3 binding. The assay is classed as protein-complex assay.

Sequence of Integrin alpha-IIb/beta-3 (P05106 27-788 limits assumed): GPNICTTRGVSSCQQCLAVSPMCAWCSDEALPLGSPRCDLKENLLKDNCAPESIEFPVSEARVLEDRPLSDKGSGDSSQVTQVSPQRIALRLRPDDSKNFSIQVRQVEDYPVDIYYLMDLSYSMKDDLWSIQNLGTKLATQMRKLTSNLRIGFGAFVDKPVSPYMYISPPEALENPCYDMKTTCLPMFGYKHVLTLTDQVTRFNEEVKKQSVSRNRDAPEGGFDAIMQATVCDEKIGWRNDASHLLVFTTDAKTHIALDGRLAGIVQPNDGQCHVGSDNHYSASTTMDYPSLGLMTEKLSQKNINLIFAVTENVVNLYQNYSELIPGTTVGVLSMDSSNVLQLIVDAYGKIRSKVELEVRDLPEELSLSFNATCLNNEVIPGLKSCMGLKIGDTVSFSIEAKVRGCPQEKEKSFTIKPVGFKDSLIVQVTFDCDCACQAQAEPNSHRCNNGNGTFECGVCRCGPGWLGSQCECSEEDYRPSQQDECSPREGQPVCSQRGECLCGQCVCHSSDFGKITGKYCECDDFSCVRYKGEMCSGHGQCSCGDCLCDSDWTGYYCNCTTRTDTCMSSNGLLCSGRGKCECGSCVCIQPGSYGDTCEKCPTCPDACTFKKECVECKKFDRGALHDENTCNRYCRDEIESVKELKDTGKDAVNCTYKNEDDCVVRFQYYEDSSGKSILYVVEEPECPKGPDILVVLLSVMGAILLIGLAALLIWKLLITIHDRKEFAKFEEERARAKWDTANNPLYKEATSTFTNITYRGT
Sequence of Integrin alpha-IIb/beta-3 (P08514 32-887 limits assumed): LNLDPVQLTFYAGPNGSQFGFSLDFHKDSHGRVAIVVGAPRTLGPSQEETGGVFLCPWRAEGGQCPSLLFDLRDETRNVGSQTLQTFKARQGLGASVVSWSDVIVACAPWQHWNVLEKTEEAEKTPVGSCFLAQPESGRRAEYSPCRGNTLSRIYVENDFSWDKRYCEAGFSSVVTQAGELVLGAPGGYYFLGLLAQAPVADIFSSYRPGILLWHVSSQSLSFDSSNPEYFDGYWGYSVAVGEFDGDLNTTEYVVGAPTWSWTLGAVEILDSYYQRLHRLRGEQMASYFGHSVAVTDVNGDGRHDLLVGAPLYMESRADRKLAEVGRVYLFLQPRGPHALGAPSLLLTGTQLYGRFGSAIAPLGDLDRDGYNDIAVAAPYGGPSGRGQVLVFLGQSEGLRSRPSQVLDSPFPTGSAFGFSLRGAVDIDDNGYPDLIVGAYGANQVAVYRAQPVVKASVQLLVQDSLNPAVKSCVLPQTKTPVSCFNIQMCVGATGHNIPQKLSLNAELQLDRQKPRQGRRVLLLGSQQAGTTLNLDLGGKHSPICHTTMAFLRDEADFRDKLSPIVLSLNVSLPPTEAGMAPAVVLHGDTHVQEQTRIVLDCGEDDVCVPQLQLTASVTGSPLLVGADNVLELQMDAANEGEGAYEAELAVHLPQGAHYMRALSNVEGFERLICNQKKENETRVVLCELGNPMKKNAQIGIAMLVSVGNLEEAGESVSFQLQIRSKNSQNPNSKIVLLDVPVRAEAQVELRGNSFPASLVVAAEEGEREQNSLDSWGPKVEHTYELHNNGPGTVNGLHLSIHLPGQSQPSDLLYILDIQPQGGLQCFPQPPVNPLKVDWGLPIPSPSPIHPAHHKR
Sequence of Integrin alpha-IIb/beta-3 (P08514 891-1039 limits assumed): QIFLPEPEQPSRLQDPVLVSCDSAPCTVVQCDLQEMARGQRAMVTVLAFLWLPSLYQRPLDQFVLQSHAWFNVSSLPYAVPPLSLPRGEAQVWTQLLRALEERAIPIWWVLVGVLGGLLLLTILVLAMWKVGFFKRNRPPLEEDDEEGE

As usually defined, the IC50 is the concentration needed to halve the response being measured. Read a low IC50 as inhibition by little substance. Take `N=C(N)NCCC[C@H](N)C(=O)NCC(=O)N[C@@H](CC(=O)O)C(=O)O`: the IC50 is more than 1 mM.
